The species entered for data set [1] is Rattus norvegicus. Description: animal or person. Particulars: Wistar, po, read-out: INH.
A short description of a further data set: physchem. Particulars: n-octanol/water.
The species entered for data set [2] is Rattus norvegicus. Description: animal or person. Particulars: Wistar, po, read-out: INH. This is another data set of the same source.
For the next data set, the species on record is Mus musculus. Description: animal or person. The conditions noted are these: Swiss, po, 3 h, read-out: INH.
The species entered for data set [3] is Rattus norvegicus. The conditions noted are these: in vivo, po, 10 mg/kg, 17 h.

The values below come from ChEMBL document CHEMBL3414520, “Synthesis, analgesic, anti-inflammatory and anti-ulcerogenic activities of certain novel Schiff's bases as fenamate isosteres” (Bioorg Med Chem Lett, 2015).

Description for physchem: n-Octanol-water partition coefficient, log P of the compound

In the case of `COc1cc(OC)c(/C=N/NC(=O)c2ccccc2NC(=O)c2ccc(C)cc2)c(OC)c1`, the values for the inhibition in vivo at 10 mg/kg in the data set filed under Rattus norvegicus [1] and in the data set filed under Rattus norvegicus [2] were 13.1% and 14.5%, respectively. For the same molecule, in “physchem”, the logP turned out to be 4.87.

Consider `Cc1ccc(C(=O)Nc2ccccc2C(=O)N/N=C/c2ccccc2)cc1`, for which the inhibition in vivo at 10 mg/kg in the data set listed under Rattus norvegicus [1] was 15.2%; in the data set filed under Rattus norvegicus [2], 15.9%. Also, the logP in the data set “physchem” was determined as 4.61.

With `COc1cc(/C=N/NC(=O)c2ccccc2NC(=O)c2ccc(C)cc2)ccc1O`, the inhibition in vivo at 10 mg/kg in the data set listed under Rattus norvegicus [1] was found to be 19.5%; in the data set filed under Rattus norvegicus [2], 23.3%. Also, in the data set “physchem”, the logP came out at 4.1.

Consider `COc1ccc(/C=N/NC(=O)c2ccccc2NC(=O)c2ccc(C)cc2)cc1`, for which the inhibition in vivo at 10 mg/kg in the data set filed under Rattus norvegicus [1] is 19.3%; in the data set listed under Rattus norvegicus [2] it was 22.6%. Also, the logP in the data set “physchem” was 4.66.

As for `Cc1ccc(C(=O)Nc2ccccc2C(=O)N/N=C/c2ccc(Cl)cc2Cl)cc1`, the results for the inhibition in vivo at 10 mg/kg in the data set filed under Rattus norvegicus [1] and in the data set filed under Rattus norvegicus [2] were 0.35% and 1.06%, respectively. This molecule also came in with a logP in “physchem” of 6.12.

For `COc1cc(OC)c(OC)cc1/C=N/NC(=O)c1ccccc1NC(=O)c1ccc(C)cc1`, the inhibition in vivo at 10 mg/kg in the data set filed under Mus musculus was 46.2%; in the data set filed under Rattus norvegicus [1] it was 62.4%; in the data set filed under Rattus norvegicus [2] it was 62.2%. Besides, the UI in the data set filed under Rattus norvegicus [3] is on record as 1.75. In addition, the lipophilicity (logP) in the data set “physchem” came to 4.23.

Take `Cc1ccc(C(=O)Nc2ccccc2C(=O)N/N=C/c2ccc(O)c(O)c2)cc1`: the results for the inhibition in vivo at 10 mg/kg in the data set listed under Mus musculus, in the data set listed under Rattus norvegicus [1] and in the data set listed under Rattus norvegicus [2] were 77.8%, 55.3% and 55.1%, respectively. The UI in the data set listed under Rattus norvegicus [3] is given as 1.417. This molecule gave a logP in the data set “physchem” of 4.02.

Consider `COc1cc(/C=N/NC(=O)c2ccccc2NC(=O)c2ccc(C)cc2)cc(OC)c1OC`, for which the inhibition in vivo at 10 mg/kg in the data set filed under Mus musculus was found to be 34.2%; in the data set filed under Rattus norvegicus [1], 62.8%; in the data set listed under Rattus norvegicus [2], 64.3%. Moreover, the UI in the data set listed under Rattus norvegicus [3] was 1.583. The logP in “physchem” was 4.63.

Regarding `Cc1ccc(C(=O)Nc2ccccc2C(=O)N/N=C/c2ccc(N(C)C)cc2)cc1`, the inhibition in vivo at 10 mg/kg in the data set listed under Rattus norvegicus [1] and in the data set listed under Rattus norvegicus [2] was 22.3% throughout. Besides, the logP in “physchem” was 4.41.

Regarding `Cc1ccc(C(=O)Nc2ccccc2C(=O)N/N=C/c2ccc(O)cc2)cc1`, the values for the inhibition in vivo at 10 mg/kg in the data set listed under Rattus norvegicus [1] and in the data set filed under Rattus norvegicus [2] were 19.5% and 23.3%, respectively. This molecule also returned a logP in the data set “physchem” of 4.14.
